The values that follow come from patent publication US6512130B1, “Mifepristone analogue, process for the preparation thereof and use thereof” (Council of Scientific and Industrial Research, priority 2000, dated 2003).

The structures appear in SMILES notation. Values joined by “and” are separate entries in the source; they are usually repeats but may differ in a detail not shown here. Equal entries are not always repeated.

The assay deals with T1, rabbit uterine progesterone receptor (Oryctolagus cuniculus, UniProt P06186).
T1 construct: performed using rabbit uterine cytosol and 3H progesterone (radioligand); from tissue; host or cells: uterus of immature, estradiol-dipropionate-primed rabbits; 105000 x g cytosol treated with dextran-coated charcoal
T1 sequence (P06186 1-930): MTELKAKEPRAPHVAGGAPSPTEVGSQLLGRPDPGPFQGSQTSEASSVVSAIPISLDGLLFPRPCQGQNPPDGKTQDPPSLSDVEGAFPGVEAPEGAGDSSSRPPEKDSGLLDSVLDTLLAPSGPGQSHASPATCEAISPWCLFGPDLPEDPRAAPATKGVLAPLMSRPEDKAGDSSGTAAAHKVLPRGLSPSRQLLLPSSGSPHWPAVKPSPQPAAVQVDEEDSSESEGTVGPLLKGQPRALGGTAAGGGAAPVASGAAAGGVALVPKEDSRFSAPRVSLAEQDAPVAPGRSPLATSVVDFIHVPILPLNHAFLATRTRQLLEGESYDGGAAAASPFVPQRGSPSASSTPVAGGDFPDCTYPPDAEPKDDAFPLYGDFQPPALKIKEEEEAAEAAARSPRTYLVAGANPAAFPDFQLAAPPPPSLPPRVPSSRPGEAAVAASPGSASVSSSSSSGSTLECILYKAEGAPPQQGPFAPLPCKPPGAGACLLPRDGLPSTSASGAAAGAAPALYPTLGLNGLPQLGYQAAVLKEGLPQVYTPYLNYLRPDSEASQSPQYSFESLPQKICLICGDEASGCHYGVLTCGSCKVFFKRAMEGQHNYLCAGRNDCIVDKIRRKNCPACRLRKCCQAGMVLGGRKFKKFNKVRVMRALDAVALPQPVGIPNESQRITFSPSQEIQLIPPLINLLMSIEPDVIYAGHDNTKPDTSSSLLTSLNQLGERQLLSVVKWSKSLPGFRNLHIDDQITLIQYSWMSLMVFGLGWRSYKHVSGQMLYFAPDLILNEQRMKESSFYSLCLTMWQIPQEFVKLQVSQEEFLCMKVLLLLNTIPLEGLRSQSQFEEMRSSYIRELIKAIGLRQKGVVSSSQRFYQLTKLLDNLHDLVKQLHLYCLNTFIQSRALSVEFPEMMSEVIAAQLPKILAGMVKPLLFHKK
Kind of assay: Competitive binding assay for progesterone receptors using rabbit uterine cytosol and 3H-progesterone. To be noted: rabbit uterine cytosol, 3H-progesterone 8×10^−9 M, 1 μM unlabelled cortisol, 4° C. 20 hours; progesterone taken as 100. As to the method:
Crude products 3, 4, and 5 may be purified by column chromatography using silica gel, basic alumina, acidic alumina or neutral alumina as adsorbants and ethyl acetate, ethyl acetate-benzene, or ethyl acetate-chloroform as solvent systems. […] The competitive binding assay for progesterone receptors (PR) was performed using rabbit uterine cytosol and 3H progesterone (radioligand) in the presence of unlabelled cortisol at 4° C. Competitor dilutions were prepared in DMF:Tris buffer pH 7.4 (1:1). […] The activity of progesterone is taken as 100.
Animals. Immature rabbits weighing about 1 kg were administered 100 μg estradioldipropionate intramuscularly for four days and were sacrificed on the fifth day. Uteri were removed, washed with ice cold saline and weighed. Uteri were homogenised in four volumes of 50 mM Tris buffer, pH 7.4 containing 1 mM EDTA, 12 mM monothioglycerol and 10% glycerol (v/v) at 2° C. using polytron PT-10 homoniser.
The homogenate was ultracentrifuged at 105000×g for 60 minutes at 4° C. The resultant supernatant (cytosol) was treated with equal volume of dextran coated charcoal (0.5% charcoal and 0.05% dextran in TEMG buffer) for 30 minutes with occasional stirring at 0° C. DCC treated cytosol was used for binding assay.
Prior to the assay, cytosol was Incubated with 1 μM unlabelled cortisol for 30 minutes at 0° C. Aliquots of the cytosol were incubated at 4° C. for 20 hours with a constant concentration of ^3H-progesterone (8×10^−9 M) in the absence or presence of increasing concentration (1 to 10000×10^−9 M) of either unlabelled progesteroine or test compounds. ^3H-progesterone bound was measured for each incubate by the technique of charcoal adsorption.
Calculation of relative binding affinity of test compounds was done by plotting the curves between the percentage of bound titrated progesterone as a function of the iogarithm of the unlabelled progesterone concentration and as a function of logarithm of the concentration of unlabelled test compounds (FIGS. 1 and 2). […]
As for `CC(C)C#C[C@]1(O)CCC2C3CCC4=CC(=O)CCC4=C3C(c3ccc(N(C)C)cc3)C[C@@]21C` (stereo partly drawn) [Compound 1, 11β-[4-(N,N-dimethylamino)phenyl]-17β-hydroxy-17α-(3-methyl-1-butynyl)-estra-4,9-dien-3-one], the “Relative binding affinity (%)” value worked out at 174.65%. As for `CC#C[C@]1(O)CC[C@H]2[C@@H]3CCC4=CC(=O)CCC4=C3[C@@H](c3ccc(N(C)C)cc3)C[C@@]21C` [Compound 6, Mifepristone], the figure is 103% and 103.44%; as for `CC(=O)[C@H]1CC[C@H]2[C@@H]3CCC4=CC(=O)CC[C@]4(C)[C@H]3CC[C@]12C` [Progesterone], 100%.
